Data reported in PubChem BioAssay (NCI).
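Results reflect a 48-hour exposure of cells in 96-well plates to compound at five concentrations. GI50 marks 50% less growth. TGI marks complete inhibition of growth.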

Tested on: MDA-MB-468 breast
Test: DTP human tumour cell line panel, 48 h

Compound: C=CCOc1cccc(/C=C2\SC(=Nc3ccc(O)cc3)NC2=O)c1
- GI50: 416 nM
- TGI: 4170 nM

Compound: O=C1c2cccnc2C(=O)c2nc3cc(N4CCN(C5CC5)CC4)ccc3nc21
- GI50: 1680 nM
- TGI: 4030 nM

Compound: CC1(C)CC(=O)c2c(C(F)(F)F)nn(-c3ccc(C(N)=O)c(NC4CCC(OC(=O)CN)CC4)c3)c2C1 (centres undefined)
- GI50: 24.3 nM
- TGI: 68.3 nM

Compound: COc1ccc2sc3c(NCCCN(C)C)nc4ccccc4c3c(=O)c2c1
- GI50: 1620 nM
- TGI: 3210 nM

Compound: COC(=O)[C@@]1(C)CC[C@]2(C)CC[C@]3(C)C4=CC=C5C(=CC(=O)C(O)=C5C)[C@]4(C)[C@@H](O)C[C@@]3(C)[C@@H]2C1
- GI50: 9710 nM
- TGI: 21900 nM

Compound: O=C(NCCO)Nc1ccc(-c2nc(N3CCOCC3)c3cccn3n2)cc1
- GI50: 88.9 nM
- TGI: 2350 nM

Compound: Cn1cc(-c2ccc3occ(-c4cccc(-c5ccncc5)c4)c3n2)cn1
- GI50: 240 nM
- TGI: 941 nM

Compound: Oc1cccc2ccc(N/N=C/c3cc(CN4CCCCC4)c(O)c4ncccc34)nc12
- GI50: 40.1 nM
- TGI: 533 nM

Compound: NCCOCCOCCNc1nc(Cc2ccccc2)nc(NCCCN2CCCC2=O)n1
- GI50: > 100000 nM
- TGI: > 100000 nM

Compound: Cc1ccc(-c2nc(C(Cl)Cl)nc3cc(-c4ccccc4)nn23)cc1
- GI50: 2940 nM

Compound: CC#C[C@]1(O)CC[C@H]2[C@@H]3CCC4=CC(=O)CCC4=C3[C@@H](c3ccc4c(c3)OCO4)C[C@@]21C
- GI50: 101000 nM
- TGI: 559000 nM

Compound: COc1cccc(-n2ncc3c(N/N=C/c4ccc(C(=O)NCCN(C)C)cc4)ncnc32)c1
- GI50: 853 nM
- TGI: 5160 nM

Compound: Nc1nc2c(c3ncncc13)C(c1cccc(C(F)(F)F)c1)Cc1ncncc1-2 (centres undefined)
- GI50: 2780 nM
- TGI: 8890 nM

Compound: COc1cc(C2CC(c3ccc4c(c3)OCO4)=NN2C=O)cc(OC)c1OC (centres undefined)
- GI50: 2050 nM
- TGI: 6810 nM

Compound: CCN(CC)CC(C)Nc1ccc([N+](=O)[O-])c2sc3ccccc3c(=O)c12 (centres undefined)
- GI50: 1810 nM
- TGI: 5790 nM

Compound: COc1ccc2nc(-c3ccc(-c4noc(-c5cc(OC)c(OC)c(OC)c5)n4)cc3)[nH]c2c1
- GI50: 6540 nM
- TGI: 26300 nM

Compound: COc1cccc2c1c(C(=O)C(=O)Nc1cc(C)no1)cn2Cc1ccc(F)cc1
- GI50: 2420 nM
- TGI: 17700 nM

Compound: COc1ccc(-c2n/c(=C\c3c(O)[nH]c4ccc(OC)cc34)cc3c2=Nc2ccccc2-3)cc1
- GI50: 1560 nM
- TGI: 3460 nM

Compound: CN(C)CC(=O)Nc1ccc(Cn2nnc3c2C(=O)c2nnn(Cc4ccc(NC(=O)CN(C)C)cc4)c2C3=O)cc1
- GI50: 104 nM
- TGI: 258 nM

Compound: CCc1nccc2c1nc(-c1nonc1N)n2CC
- GI50: > 25000 nM
- TGI: > 25000 nM

Compound: CCCC(C)c1cc(Cc2cc(Cl)cc(Cl)c2O)c(O)c(Cc2cc(Cl)cc(Cl)c2O)c1 (centres undefined)
- GI50: 393 nM
- TGI: 5070 nM

Compound: CC1SC(c2ccccc2)N(CCc2cccs2)C1=O (centres undefined)
- GI50: 2430 nM
- TGI: 8420 nM

Compound: Cc1cc(N(CCCl)CCCl)ccc1C=Nc1ccc(-c2csc(Cc3ccccc3)n2)cc1
- GI50: 160 nM
- TGI: 2860 nM

Compound: COc1ccc2c(c1)cn1c3ccc(O)cc3nc(N)c21
- GI50: 747 nM
- TGI: 4730 nM

Compound: CC(C)c1cc(-c2n[nH]c(=O)n2-c2ccc3c(ccn3C)c2)c(O)cc1O
- GI50: < 14.3 nM
- TGI: 327 nM

Compound: CC[C@@H](C(=O)O)C1CC[C@H](C)C([C@@H](C)[C@H](O)[C@H](C)C(=O)[C@H](CC)C2O[C@]3(C=C[C@@H](O)[C@]4(CC[C@@](C)(C5CC[C@](O)(CC)[C@H](C)O5)O4)O3)[C@H](C)C[C@@H]2C)O1 (some centres undefined)
- GI50: 292 nM
- TGI: 4340 nM

Compound: COc1ccc(-c2csc(N(C(=O)N3CCN(c4cc5c(cc4F)c(=O)c(C(=O)O)cn5C4CC4)CC3)c3ccccc3)n2)cc1
- GI50: 2550 nM
- TGI: 8740 nM

Compound: CC(C)C[C@H]1C(=O)O[C@H](C(C)C)C(=O)N(C)[C@@H](C(C)C)C(=O)O[C@H](C(C)C)C(=O)N(C)[C@@H](C(C)C)C(=O)O[C@H](C(C)C)C(=O)N1C
- GI50: 2010 nM
- TGI: 9350 nM

Compound: COc1ccc(-c2c3c(N)nc(-c4ccncc4)nc3nc3c2c(C)nn3-c2ccccc2)cc1
- GI50: 7750 nM
- TGI: > 100000 nM

Compound: COc1cc(/C=C/c2cc(O)c3cc(C(C)=O)c(=O)oc3c2)cc2c1O[C@]1(C)CC[C@@H](O)C(C)(C)[C@H]1C2
- GI50: 3870 nM
- TGI: 20500 nM

Compound: O=C(O)/C=C\C(=O)N1C/C(=C\c2ccccc2Cl)C(=O)/C(=C/c2ccccc2Cl)C1
- GI50: 1540 nM
- TGI: 3460 nM

Compound: COc1ccc(/C(=C2/O[C@@H]([C@H]3COC(C)(C)O3)[C@H]3OC(C)(C)O[C@@H]23)c2cc(OC)c(OC)c(OC)c2)cc1O
- GI50: 25600 nM
- TGI: 63600 nM

Compound: N=C(N)c1ccc(-c2ccc(-c3cc(Cl)cc(Cl)c3)o2)nc1
- GI50: 1690 nM
- TGI: 3290 nM

Compound: OC(c1cc(-c2ccccc2)nc2ccc(Cl)cc12)C1CCCCN1 (centres undefined)
- GI50: 2010 nM
- TGI: 3860 nM

Compound: O=c1cc(-c2ccccc2)[nH]c2ccccc12
- GI50: 481 nM

Compound: COC(=O)[C@H](C[C@H](Cc1ccccc1)NC(=O)c1csc([C@@H](C[C@H](C(C)C)N(C)C(=O)[C@@H](NC(=O)[C@H]2CCCCN2C)C(C)C)OC(C)=O)n1)NC(=O)OCc1ccccc1
- GI50: < 0.9 nM
- TGI: < 0.9 nM

Compound: Cc1ccccc1[P+](Cc1ccccc1)(c1ccccc1)c1ccccc1
- GI50: 367 nM
- TGI: 4000 nM

Compound: CN1CCC(n2cnc(-c3ccc(F)cc3)c2-c2ccnc(NCCO)n2)CC1
- GI50: 10000 nM
- TGI: > 25000 nM

Compound: COc1ccc(/C=C2\CCCC3=C2N=C2SC(C)=NN2C3c2ccc(OC)c(OC)c2)cc1OC (centres undefined)
- GI50: 2610 nM
- TGI: 9090 nM

Compound: COc1cc2c(c(OC)c1)C1c3ccccc3NC(=O)N1CC2 (centres undefined)
- GI50: 2550 nM
- TGI: 8570 nM

Compound: O=C(CCCCCCC(=O)Nc1ccc(N(CCCl)CCCl)cc1)NO
- GI50: 232 nM
- TGI: 1110 nM

Compound: OC1CCN(CCCOc2c3ccc(Cl)cc3nc3c2oc2ccc(Cl)cc23)CC1
- GI50: 1820 nM
- TGI: 7880 nM

Compound: CCCCC(CC)CN=C(N)NC(N)=NCCCCCCN=C(N)NC(N)=NCC(CC)CCCC (centres undefined)
- GI50: 1270 nM
- TGI: 2730 nM
